Patent US20260022142A1, “MACROCYCLIC IMMUNOMODULATORS” (Bristol-Myers Squibb Company, priority 2022, published 2026)
Numbered stars: 1 amine (or outer) side, 2 acyl side, 3 side chain; on linkers, the order of the positions; unused ones are H or OH. Bridge positions count the residues as written; N and C are the ends. Square brackets hold non-standard residues; d marks the D form. Peptide text beside a SMILES is read from it. * marks the point of attachment. ξ: configuration not given here. Bip = N[C@@H](Cc1ccc(-c2ccccc2)cc1)C(=O)O; Phe(3-Me) = Cc1cccc(C[C@H](N)C(=O)O)c1; γGlu = O=C(O)[C@H](CCC(=O)[*:2])N[*:1]; Cha = N[C@@H](CC1CCCCC1)C(=O)O; Thr(3ξ) = CC(O)[C@H](N)C(=O)O; Carboxymethyl = O=C(O)C*; Orn = NCCC[C@H](N)C(=O)O; Aun = NCCCCCCCCCCC(=O)O; Dab = NCC[C@H](N)C(=O)O; Dap = NC[C@H](N)C(=O)O; AEEA = NCCOCCOCC(=O)O

Molecular target: T1, PD-1/PD-L1 interaction (PE-labeled human PD-L1-Ig binding to Jurkat cell line over-expressing human PD-1) (Homo sapiens, UniProt Q15116)
T1 construct: expressed in transfected cells; host or cells: Jurkat
T1 sequence (Q15116 25-288): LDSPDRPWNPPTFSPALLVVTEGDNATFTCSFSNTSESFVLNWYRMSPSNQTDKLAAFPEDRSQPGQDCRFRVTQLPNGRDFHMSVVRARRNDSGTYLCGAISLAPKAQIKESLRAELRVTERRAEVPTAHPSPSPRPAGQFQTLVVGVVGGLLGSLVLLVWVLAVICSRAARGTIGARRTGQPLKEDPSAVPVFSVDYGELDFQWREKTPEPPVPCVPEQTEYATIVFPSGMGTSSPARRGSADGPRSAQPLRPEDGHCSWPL
Assay: Jurkat-PD-1 Cell Binding High-Content Screening Assay (CBA)
Assay type: cell-based
Conditions: Jurkat cell line over-expressing human PD-1; PE-labeled PD-L1-Ig 20 nM final; read-out: Jurkat hPD1-PDL1 IC50
Outline: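 Human PD-L1-Ig carrying a covalent PE label on its Ig tag serves as the probe, applied at 20 nM final to compound-treated (2 h, 37° C) Jurkat-hPD-1 cells in medium with 10% fetal calf serum. After one hour, fixation and nuclear staining precede high-content image analysis.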

SMILES	IC50 [nM]
CC(C)C[C@H]1NC(=O)[C@H](CCCN)NC(=O)[C@H](Cc2ccc(O)cc2)NC(=O)[C@H](Cc2ccc(-c3ccccc3)cc2)NC(=O)[C@H](C(C)C)NC(=O)[C@H](Cc2c[nH]c3ccccc23)NC(=O)[C@H](CC(=O)O)NC(=O)[C@H](Cc2ccc(OCC(=O)O)cc2)NC(=O)[C@H](CN)NC(=O)CSC[C@@H](C(=O)N[C@@H](CCN)C(=O)NCCCCCCCCCCC(=O)O)NC(=O)[C@H](CN)NC(=O)[C@H](C(C)O)NC(=O)[C@H](CC2CCCCC2)NC(=O)[C@H](CCN)NC1=O (stereo partly drawn) [Compound 3654] ({CH2CO}-[Dap]Y(Carboxymethyl)DWV[Bip]Y[Orn][dL][Dab][Cha][Thr(3ξ)][Dap]C[Dab][Aun]-OH; thioether N-14)	45.1
CC(C)C[C@H]1NC(=O)[C@H](CCCN)NC(=O)[C@H](Cc2ccc(O)cc2)NC(=O)[C@H](Cc2ccc(-c3ccccc3)cc2)NC(=O)[C@H](C(C)C)NC(=O)[C@H](Cc2c[nH]c3ccccc23)NC(=O)[C@H](CC(=O)O)NC(=O)[C@H](Cc2ccc(OCC(=O)O)cc2)NC(=O)[C@H](CN)NC(=O)CSC[C@@H](C(=O)N[C@@H](CCN)C(=O)NCCCCCCCCCCC(=O)O)NC(=O)[C@H](CCCCN)NC(=O)[C@H](C(C)O)NC(=O)[C@H](CC2CCCCC2)NC(=O)[C@H](CCN)NC1=O (stereo partly drawn) [Compound 3655] ({CH2CO}-[Dap]Y(Carboxymethyl)DWV[Bip]Y[Orn][dL][Dab][Cha][Thr(3ξ)]KC[Dab][Aun]-OH; thioether N-14)	61.8
CC(C)C[C@H]1NC(=O)[C@H](CCCN)NC(=O)[C@H](Cc2ccc(O)cc2)NC(=O)[C@H](Cc2ccc(-c3ccccc3)cc2)NC(=O)[C@H](Cc2ccc(O)cc2)NC(=O)[C@H](Cc2c[nH]c3ccccc23)NC(=O)[C@H](CC(=O)O)NC(=O)[C@H](Cc2ccc(OCC(=O)O)cc2)NC(=O)[C@H](CN)NC(=O)CSC[C@@H](C(=O)N[C@@H](CCN)C(=O)NCCCCCCCCCCC(=O)O)NC(=O)[C@H](CN)NC(=O)[C@H](C(C)O)NC(=O)[C@H](CC2CCCCC2)NC(=O)[C@H](CCN)NC1=O (stereo partly drawn) [Compound 3656] ({CH2CO}-[Dap]Y(Carboxymethyl)DWY[Bip]Y[Orn][dL][Dab][Cha][Thr(3ξ)][Dap]C[Dab][Aun]-OH; thioether N-14)	178
CC(C)C[C@H]1NC(=O)[C@H](CCCN)NC(=O)[C@H](Cc2ccc(O)cc2)NC(=O)[C@H](Cc2ccc(-c3ccccc3)cc2)NC(=O)[C@H](Cc2ccc(O)cc2)NC(=O)[C@H](Cc2c[nH]c3ccccc23)NC(=O)[C@H](CC(=O)O)NC(=O)[C@H](Cc2ccc(OCC(=O)O)cc2)NC(=O)[C@H](CN)NC(=O)CSC[C@@H](C(=O)N[C@@H](CCN)C(=O)NCCCCCCCCCCC(=O)O)NC(=O)[C@H](CCCCN)NC(=O)[C@H](C(C)O)NC(=O)[C@H](CC2CCCCC2)NC(=O)[C@H](CCN)NC1=O (stereo partly drawn) [Compound 3657] ({CH2CO}-[Dap]Y(Carboxymethyl)DWY[Bip]Y[Orn][dL][Dab][Cha][Thr(3ξ)]KC[Dab][Aun]-OH; thioether N-14)	121
CC(C)C[C@@H]1NC(=O)[C@H](Cc2c[nH]c3ccccc23)NC(=O)[C@H](CC(=O)O)NC(=O)[C@H](Cc2ccc(OCC(=O)O)cc2)NC(=O)[C@H](CN)NC(=O)CSC[C@@H](C(=O)N[C@@H](CCN)C(=O)NCCCCCCCCCCC(=O)O)NC(=O)[C@H](CN)NC(=O)[C@H](C(C)O)NC(=O)[C@H](CC2CCCCC2)NC(=O)[C@H](CCN)NC(=O)[C@@H](CC(C)C)NC(=O)[C@H](CCCN)NC(=O)[C@H](Cc2ccc(O)cc2)NC(=O)[C@H](Cc2ccc(-c3ccccc3)cc2)NC1=O (stereo partly drawn) [Compound 3658] ({CH2CO}-[Dap]Y(Carboxymethyl)DWL[Bip]Y[Orn][dL][Dab][Cha][Thr(3ξ)][Dap]C[Dab][Aun]-OH; thioether N-14)	88
Cc1cccc(C[C@@H]2NC(=O)[C@H](CC(=O)O)NC(=O)[C@H](Cc3ccc(OCC(=O)O)cc3)NC(=O)[C@H](CN)NC(=O)CSC[C@@H](C(=O)N[C@H](CC(N)=O)C(=O)NCCCCCCCCCCC(=O)O)NC(=O)[C@H](CO)NC(=O)[C@H](C(C)O)NC(=O)[C@H](CC3CCCCC3)NC(=O)[C@H](CCN)NC(=O)[C@@H](CC(C)C)NC(=O)[C@H](CCCN)NC(=O)[C@H](Cc3ccc(OCC(=O)O)cc3)NC(=O)[C@H](Cc3ccc(-c4ccccc4)cc3)NC(=O)[C@H](Cc3ccc(OCC(=O)O)cc3)NC2=O)c1 (stereo partly drawn) [Compound 3659] ({CH2CO}-[Dap]Y(Carboxymethyl)D[Phe(3-Me)]Y(Carboxymethyl)[Bip]Y(Carboxymethyl)[Orn][dL][Dab][Cha][Thr(3ξ)]SC[dN][Aun]-OH; thioether N-14)	47.6
Cc1cccc(C[C@@H]2NC(=O)[C@H](CC(=O)O)NC(=O)[C@H](Cc3ccc(OCC(=O)O)cc3)NC(=O)[C@H](CCN)NC(=O)CSC[C@@H](C(=O)N[C@H](CC(N)=O)C(=O)NCCCCCCCCCCC(=O)O)NC(=O)[C@H](CO)NC(=O)[C@H](C(C)O)NC(=O)[C@H](CC3CCCCC3)NC(=O)[C@H](CCN)NC(=O)[C@@H](CC(C)C)NC(=O)[C@H](CCCN)NC(=O)[C@H](Cc3ccc(OCC(=O)O)cc3)NC(=O)[C@H](Cc3ccc(-c4ccccc4)cc3)NC(=O)[C@H](Cc3ccc(OCC(=O)O)cc3)NC2=O)c1 (stereo partly drawn) [Compound 3660] ({CH2CO}-[Dab]Y(Carboxymethyl)D[Phe(3-Me)]Y(Carboxymethyl)[Bip]Y(Carboxymethyl)[Orn][dL][Dab][Cha][Thr(3ξ)]SC[dN][Aun]-OH; thioether N-14)	67.9
CC(C)C[C@H]1NC(=O)[C@H](CCCN)NC(=O)[C@H](C(C)C)NC(=O)[C@H](Cc2ccc(-c3ccccc3)cc2)NC(=O)[C@H](C(C)C)NC(=O)[C@H](Cc2c[nH]c3ccccc23)NC(=O)[C@H](CC(=O)O)NC(=O)[C@H](Cc2ccc(OCC(=O)O)cc2)NC(=O)[C@H](C(C)O)NC(=O)CSC[C@@H](C(=O)N[C@@H](CCN)C(=O)NCCCCCCCCCCC(=O)O)NC(=O)[C@H](CN)NC(=O)[C@H](C(C)O)NC(=O)[C@H](CC2CCCCC2)NC(=O)[C@H](CCN)NC1=O (stereo partly drawn) [Compound 3661] ({CH2CO}-[Thr(3ξ)]Y(Carboxymethyl)DWV[Bip]V[Orn][dL][Dab][Cha][Thr(3ξ)][Dap]C[Dab][Aun]-OH; thioether N-14)	35.8

These reach a lower IC50. Values come first.

IC50 [nM]	SMILES
17.5	CC(C)C[C@H]1NC(=O)[C@H](CCCN)NC(=O)[C@H](C(C)C)NC(=O)[C@H](Cc2ccc(-c3ccccc3)cc2)NC(=O)[C@H](C(C)C)NC(=O)[C@H](Cc2c[nH]c3ccccc23)NC(=O)[C@H](CC(=O)O)NC(=O)[C@H](Cc2ccc(OCC(=O)O)cc2)NC(=O)[C@H](CN)NC(=O)CSC[C@@H](C(=O)N[C@@H](CCN)C(=O)NCCOCCOCC(=O)N[C@@H](CCC(=O)NCCCCCCCCCCC(=O)O)C(=O)O)NC(=O)[C@H](CCCCN)NC(=O)[C@H](C(C)O)NC(=O)[C@H](CC2CCCCC2)NC(=O)[C@H](CCN)NC1=O (stereo partly drawn) [Compound 3650] ({CH2CO}-[Dap]Y(Carboxymethyl)DWV[Bip]V[Orn][dL][Dab][Cha][Thr(3ξ)]KC[Dab][AEEA][γGlu][Aun]-OH; thioether N-14)
24.1	CC(C)C[C@H]1NC(=O)[C@H](CCCN)NC(=O)[C@H](C(C)C)NC(=O)[C@H](Cc2ccc(-c3ccccc3)cc2)NC(=O)[C@H](C(C)C)NC(=O)[C@H](Cc2c[nH]c3ccccc23)NC(=O)[C@H](CC(=O)O)NC(=O)[C@H](Cc2ccc(OCC(=O)O)cc2)NC(=O)[C@H](CN)NC(=O)CSC[C@@H](C(=O)N[C@@H](CCN)C(=O)NCCCCCCCCCCC(=O)O)NC(=O)[C@H](CO)NC(=O)[C@H](C(C)O)NC(=O)[C@H](CC2CCCCC2)NC(=O)[C@H](CCN)NC1=O (stereo partly drawn) [Compound 3651] ({CH2CO}-[Dap]Y(Carboxymethyl)DWV[Bip]V[Orn][dL][Dab][Cha][Thr(3ξ)]SC[Dab][Aun]-OH; thioether N-14)
22.1	CC(C)C[C@H]1NC(=O)[C@H](CCCN)NC(=O)[C@H](C(C)C)NC(=O)[C@H](Cc2ccc(-c3ccccc3)cc2)NC(=O)[C@H](C(C)C)NC(=O)[C@H](Cc2c[nH]c3ccccc23)NC(=O)[C@H](CC(=O)O)NC(=O)[C@H](Cc2ccc(OCC(=O)O)cc2)NC(=O)[C@H](CN)NC(=O)CSC[C@@H](C(=O)N[C@@H](CCN)C(=O)NCCCCCCCCCCC(=O)O)NC(=O)[C@H](Cc2cnc[nH]2)NC(=O)[C@H](C(C)O)NC(=O)[C@H](CC2CCCCC2)NC(=O)[C@H](CCN)NC1=O (stereo partly drawn) [Compound 3652] ({CH2CO}-[Dap]Y(Carboxymethyl)DWV[Bip]V[Orn][dL][Dab][Cha][Thr(3ξ)]HC[Dab][Aun]-OH; thioether N-14)
15.1	CC(C)C[C@H]1NC(=O)[C@H](CCCN)NC(=O)[C@H](C(C)C)NC(=O)[C@H](Cc2ccc(-c3ccccc3)cc2)NC(=O)[C@H](C(C)C)NC(=O)[C@H](Cc2c[nH]c3ccccc23)NC(=O)[C@H](CC(=O)O)NC(=O)[C@H](Cc2ccc(OCC(=O)O)cc2)NC(=O)[C@H](C(C)O)NC(=O)CSC[C@@H](C(=O)N[C@@H](CCN)C(=O)NCCOCCOCC(=O)N[C@@H](CCC(=O)NCCCCCCCCCCC(=O)O)C(=O)O)NC(=O)[C@H](CN)NC(=O)[C@H](C(C)O)NC(=O)[C@H](CC2CCCCC2)NC(=O)[C@H](CCN)NC1=O (stereo partly drawn) [Compound 3662] ({CH2CO}-[Thr(3ξ)]Y(Carboxymethyl)DWV[Bip]V[Orn][dL][Dab][Cha][Thr(3ξ)][Dap]C[Dab][AEEA][γGlu][Aun]-OH; thioether N-14)
15.3	CC(C)C[C@H]1NC(=O)[C@H](CCCN)NC(=O)[C@H](C(C)C)NC(=O)[C@H](Cc2ccc(-c3ccccc3)cc2)NC(=O)[C@H](C(C)C)NC(=O)[C@H](Cc2c[nH]c3ccccc23)NC(=O)[C@H](CC(=O)O)NC(=O)[C@H](Cc2ccc(OCC(=O)O)cc2)NC(=O)[C@H](C(C)O)NC(=O)CSC[C@@H](C(=O)N[C@@H](CCN)C(=O)NCCOCCOCC(=O)N[C@@H](CCC(=O)NCCCCCCCCCCC(=O)O)C(=O)O)NC(=O)[C@H](CCCCN)NC(=O)[C@H](C(C)O)NC(=O)[C@H](CC2CCCCC2)NC(=O)[C@H](CCN)NC1=O (stereo partly drawn) [Compound 3663] ({CH2CO}-[Thr(3ξ)]Y(Carboxymethyl)DWV[Bip]V[Orn][dL][Dab][Cha][Thr(3ξ)]KC[Dab][AEEA][γGlu][Aun]-OH; thioether N-14)
